Test results published in patent publication US5521069A, “Genomic DNA exons having exons encoding human pituitary adenylate cyclase activity peptide with 38 amino acids residues(PACAP38) and a promoter thereof” (Takeda Chemical Industries, Ltd., priority 1990, dated 1996).
Where no end group is shown, it is not given here.

Key:
[1] = test system: rat pituicytes; experiment: Adenylate Cyclase Stimulating Test in Rat Pituicyte Culture; format: cell-based; settings: Experiment 2, blank 1.35 ± 0.05
Description: The amino acid sequence of sheep PACAP38 is believed to be identical to that of human PACAP38. […] The minimum effective amount was 10^-12 M, and it was shown that the activity increased with increasing concentration.

[2] = Hypotensive activity in anesthetized male Wistar rats; format: in vivo, rat; settings: nembutal anesthesia
Protocol: Using male Wistar rats having a body weight of 350 g under nembutal anesthesia, the hypotensive activity was measured.

Substance | cAMP (M ± SEM) ([1]; 10^-7 M) | cAMP (M ± SEM) ([1]; 10^-8 M) | cAMP (M ± SEM) ([1]; 10^-9 M) | cAMP (M ± SEM) ([1]; 10^-10 M) | cAMP (M ± SEM) ([1]; 10^-11 M) | cAMP (M ± SEM) ([1]; 10^-12 M) | Hypotensive activity (decrease from normal value) ([2]; dosage 0.3 n mole/kg) | Hypotensive activity (decrease from normal value) ([2]; dosage 1.0 n mole/kg) | Hypotensive activity (decrease from normal value) ([2]; dosage 3.0 n mole/kg)
PACAP27 NH2 [Syn.27p-NH2] | 9.20 ± 0.20 p mol/ml | 9.20 ± 0.00 p mol/ml | 7.90 ± 0.30 p mol/ml | 4.00 ± 0.20 p mol/ml | 2.55 ± 0.15 p mol/ml | 2.05 ± 0.15 p mol/ml | 14.5 ± 3.1 mm Hg | 51.9 ± 9.6 mm Hg | 4.1 mm Hg
PACAP38 NH2 (HSDGIFTDSYSRYRKQMAVKKYLAAVLGKRYKQRVKNK-NH2; UniProt P18509 132-169, looked up) | – | – | – | – | – | – | 3.2 ± 1.9 mm Hg | 17.4 ± 2.4 mm Hg | 29.8 ± 3.6 mm Hg
